The values below are quoted from earlier work in patent US9233112B2, “Pharmaceutical compositions of cefixime” (LUPIN LIMITED, priority 2006, dated 2016).

As for `C=CC1=C(C(=O)O)N2C(=O)[C@@H](NC(=O)/C(=N\OCC(=O)O)c3csc(N)n3)[C@H]2SC1` [Cefixime], the Solubility in water result was “poorly soluble in water”.
